Reference: patent US9492368B2, “External preparation for skin” (HAYASHIBARA CO., LTD., priority 2011, dated 2016)
Marks after values point to notes of the source that are not given here.

Key:
sphingomyelinase (SMase) = test: Real-time PCR gene expression in NHEK cells: sphingomyelinase; format: cell-based, human; details: 1 μM, seven days, relative to control = 1.00
Method: (§1) Since glucosyladenosines were confirmed in Experiment 5 to have an action of enhancing the differentiation of keratinocytes effective for skin improvement, a test for examining the change of the expression level of a molecular marker gene of keratinocytes, as an index, was performed as follows using a real-time PCR analysis method to examine the above action in more detail. The expression level of a ceramide-synthesis-related gene was also studied to examine the influence of glucosyladenosines on ceramide synthesis that had been known to have an important role in moisturizing the skin and barrier function of the skin and deemed to be effective for skin improvement. As genes for analysis, profilaggrin (PFG: a later differentiation marker) and involucrin (INV: an early differentiation marker) as differentiation markers of keratinocytes and β-glucocerebrosidase (GCase) and sphingomyelinase (SMase) as ceramide-synthesis-related enzymes were selected, and a gene for cyclophilin B (CypB) as an internal standard upon practicing PCR reaction was used (see FIG. 7). NHEK cells were inoculated to 6-well plate coated with collagen in an amount of 8×10^4 cells/1.5 ml/well, cultured with EpiLife medium, and cultured at 37° C. for two days under a 5 v/v % CO2 condition. Thereafter, the culture medium was removed, and the resulting cells were added with a fresh EpiLife medium containing 5′-glucosyladenosine, 3′-glucosyladenosine, or adenosine in a volume of 1.5 ml/well (giving a final concentration of 1 μM of any one of glucosyladenosines and adenosine), and cultured for seven days while replacing the medium with a fresh one containing any one of glucosyladenosines and adenosine in a volume of 1.5 ml/well every other day. After completion of the culture, each well was washed twice with PBS(K−), followed by adding 0.2 ml/well of 0.025% by mass of trypsin/EDTA solution to the resulting cells and allowing the cells to stand at an ambient temperature for five minutes to detach them from the plates. […]

involucrin (INV) = test: Real-time PCR gene expression in NHEK cells: involucrin; format: cell-based, human; details: 1 μM, seven days, relative to control = 1.00
Method: as §1

[1] = Solubility of glucosyladenosines in water (maximum dissolved concentration, HPLC); format: physicochemical
Method: As a basic property, the solubilities in water of the glucosyladenosines of the present invention were compared with that of adenosine. The 5′-glucosyladenosine prepared in Experiment 1-2 and the 3′-glucosyladenosine prepared in Experiment 2 were determined for solubility in water, and they were compared with that of adenosine. One hundred milligrams of 5′-glucosyladenosine or 3′-glucosyladenosine (these compounds may be collectively called glucosyladenosines, hereinafter) was dissolved in 500 μl of pure water at an ambient temperature (25° C.). While, five milligrams of adenosine was dissolved in 500 μl of pure water at an ambient temperature (25° C.). […] The filtrate was fed to HPLC under the following conditions, followed by determining the respective contents of glucosyladenosines and adenosine based on the peak areas appeared on a chromatogram by an ultraviolet detector, and calculating their concentrations as maximum dissolved concentrations at an ambient temperature (25° C.). The same samples were allowed to stand at a 4° C. cold room for one month and centrifuged, followed by quantifying the contents of glucosyladenosines and adenosine in the resulting supernatants similarly as above to determine their maximum dissolved concentrations at 4° C.
<Conditions for HPLC Analysis>
Apparatus: SHIMADZU UV-VIS DETECTOR SPD-10AV (a detector), LC-10AT (a pump), C-R8A (a recorder), and SIL-20AC (an autosampler);
Mobile phase: (0.1 v/v % aqueous acetic acid solution)/(methanol)=96/4 (v/v),
Detection wavelength: 260 nm,
Injection volume: 20 μl, and
Column temperature: 40° C.

[2] = test system: three-dimensional skin model (EPI-200 Kit); test: Cytotoxicity: LDH release from three-dimensional skin model; format: cell-based; details: 18 hours, control = 1.0
Method: To examine whether glucosyladenosines are successively applied to the skin as ingredients for sustainable external dermal agents, they were examined for cytotoxicity. The strengths of cytotoxicity of glucosyladenosines were examined with an index of […] (LDH) that is released when cell are damaged, as an influence of glucosyladenosines and adenosine on three dimensional skin. […] A system, to which 30% ethanol with no glucosyladenosines and adenosine was added, was provided as a control. For the collected media, the activity of […] (LDH) released from each skin model was assayed on “CYTOTOXICITY DETECTION KIT (LDH)”, a product name of Hoffmann-La Roche Ltd., Basel, Switzerland, and calibrated for obtaining a relative LDH activity by regarding the LDH activity of the control as 1.0 in order to evaluate the cytotoxicity for each sample.

[3] = test system: β-glucocerebrosidase (GCase); test: Real-time PCR gene expression in NHEK cells: β-glucocerebrosidase; format: cell-based, human; details: 1 μM, seven days, relative to control = 1.00
Method: as §1

profilaggrin (PFG) = test: Real-time PCR gene expression in NHEK cells: profilaggrin; format: cell-based, human; details: 1 μM, seven days, relative to control = 1.00
Method: as §1

## Nc1ncnc2c1ncn2[C@@H]1O[C@H](CO)[C@@H](O[C@H]2O[C@H](CO)[C@@H](O)[C@H](O)[C@H]2O)[C@H]1O [3′-Glucosyladenosine, α-D-glucopyranosyl-(1→3′)-adenosine]
Sphingomyelinase (SMase)
  Gene expression level SMase: 2.03*
Involucrin (INV)
  Gene expression level INV: 1.52*
[1]; 4° C., one month
  Maximum dissolved concentration: 2 w/v %
[1]; 25° C., one day
  Maximum dissolved concentration: 2 w/v %
[2]; concentration 5%
  Relative LDH activity: 0.99
[3]
  Gene expression level GCase: 2.08*
Profilaggrin (PFG)
  Gene expression level PFG: 2.03*

## Nc1ncnc2c1ncn2[C@@H]1O[C@H](CO[C@H]2O[C@H](CO)[C@@H](O)[C@H](O)[C@H]2O)[C@@H](O)[C@H]1O [5′-Glucosyladenosine, α-D-glucopyranosyl-(1→5′)-adenosine]
Sphingomyelinase (SMase)
  Gene expression level SMase: 2.57**
Involucrin (INV)
  Gene expression level INV: 1.66**
[1]; 4° C., one month
  Maximum dissolved concentration: > 15.7 w/v %
[1]; 25° C., one day
  Maximum dissolved concentration: > 16.1 w/v %
[2]; concentration 5%
  Relative LDH activity: 0.79
[3]
  Gene expression level GCase: 2.68**
Profilaggrin (PFG)
  Gene expression level PFG: 2.54**

## Nc1ncnc2c1ncn2[C@@H]1O[C@H](CO)[C@@H](O)[C@H]1O [Adenosine, reference compound]
Sphingomyelinase (SMase)
  Gene expression level SMase: 1.35
Involucrin (INV)
  Gene expression level INV: 1.15
[1]; 4° C., one month
  Maximum dissolved concentration: 0.4 w/v %
[1]; 25° C., one day
  Maximum dissolved concentration: 0.8 w/v %
[2]; concentration 0.1%
  Relative LDH activity: 1.38
[2]; concentration 1%
  Relative LDH activity: 3.68
[3]
  Gene expression level GCase: 1.37
Profilaggrin (PFG)
  Gene expression level PFG: 1.41
